Measured values published in US20180099931A1 (AbbVie S.à.r.l., priority 2016, published 2018).
Where two headings read alike, the source gives them in different places.

Molecular target: T1, F508delCFTR (Homo sapiens, UniProt P13569, DEL508-508)
T1 construct: expressed in transfected cells; host or cells: CFBE41o- human lung-derived epithelial cells (CFBE4lo-F508delCFTR-HRP), doxycycline-inducible
Assay: Cell Surface Expression-Horse Radish Peroxidase (CSE-HRP) Assay;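 as to Maximum % activity (with co-corrector): co-corrector and positive control are both the same reference corrector at 2 µM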;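 as to Maximum % activity (without co-corrector): percent of the 2 µM on-plate positive control corrector response above DMSO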
Assay type: cell-based
Settings: CSE-HRP; for Maximum % activity (with co-corrector): with co-corrector (2 μM); for Maximum % activity (with co-corrector) / Emax: maximum at any tested concentration, normalized to on-plate positive control; for Emax: without co-corrector, read-out: Maximum % activity (without co-corrector)

[1] = test compound without co-corrector, read-out: EC50 (without co-corrector)
[2] = with co-corrector (2 μM of 3-[(2R,4R)-4-({[1-(2,2-difluoro-1,3-benzodioxol-5-yl)cyclopropyl]carbonyl}amino)-7-methoxy-3,4-dihydro-2H-chromen-2-yl]benzoic acid), read-out: EC50 (with co-corrector)

T1 sequence (P13569 with tags, fused parts or gaps DEL508-508): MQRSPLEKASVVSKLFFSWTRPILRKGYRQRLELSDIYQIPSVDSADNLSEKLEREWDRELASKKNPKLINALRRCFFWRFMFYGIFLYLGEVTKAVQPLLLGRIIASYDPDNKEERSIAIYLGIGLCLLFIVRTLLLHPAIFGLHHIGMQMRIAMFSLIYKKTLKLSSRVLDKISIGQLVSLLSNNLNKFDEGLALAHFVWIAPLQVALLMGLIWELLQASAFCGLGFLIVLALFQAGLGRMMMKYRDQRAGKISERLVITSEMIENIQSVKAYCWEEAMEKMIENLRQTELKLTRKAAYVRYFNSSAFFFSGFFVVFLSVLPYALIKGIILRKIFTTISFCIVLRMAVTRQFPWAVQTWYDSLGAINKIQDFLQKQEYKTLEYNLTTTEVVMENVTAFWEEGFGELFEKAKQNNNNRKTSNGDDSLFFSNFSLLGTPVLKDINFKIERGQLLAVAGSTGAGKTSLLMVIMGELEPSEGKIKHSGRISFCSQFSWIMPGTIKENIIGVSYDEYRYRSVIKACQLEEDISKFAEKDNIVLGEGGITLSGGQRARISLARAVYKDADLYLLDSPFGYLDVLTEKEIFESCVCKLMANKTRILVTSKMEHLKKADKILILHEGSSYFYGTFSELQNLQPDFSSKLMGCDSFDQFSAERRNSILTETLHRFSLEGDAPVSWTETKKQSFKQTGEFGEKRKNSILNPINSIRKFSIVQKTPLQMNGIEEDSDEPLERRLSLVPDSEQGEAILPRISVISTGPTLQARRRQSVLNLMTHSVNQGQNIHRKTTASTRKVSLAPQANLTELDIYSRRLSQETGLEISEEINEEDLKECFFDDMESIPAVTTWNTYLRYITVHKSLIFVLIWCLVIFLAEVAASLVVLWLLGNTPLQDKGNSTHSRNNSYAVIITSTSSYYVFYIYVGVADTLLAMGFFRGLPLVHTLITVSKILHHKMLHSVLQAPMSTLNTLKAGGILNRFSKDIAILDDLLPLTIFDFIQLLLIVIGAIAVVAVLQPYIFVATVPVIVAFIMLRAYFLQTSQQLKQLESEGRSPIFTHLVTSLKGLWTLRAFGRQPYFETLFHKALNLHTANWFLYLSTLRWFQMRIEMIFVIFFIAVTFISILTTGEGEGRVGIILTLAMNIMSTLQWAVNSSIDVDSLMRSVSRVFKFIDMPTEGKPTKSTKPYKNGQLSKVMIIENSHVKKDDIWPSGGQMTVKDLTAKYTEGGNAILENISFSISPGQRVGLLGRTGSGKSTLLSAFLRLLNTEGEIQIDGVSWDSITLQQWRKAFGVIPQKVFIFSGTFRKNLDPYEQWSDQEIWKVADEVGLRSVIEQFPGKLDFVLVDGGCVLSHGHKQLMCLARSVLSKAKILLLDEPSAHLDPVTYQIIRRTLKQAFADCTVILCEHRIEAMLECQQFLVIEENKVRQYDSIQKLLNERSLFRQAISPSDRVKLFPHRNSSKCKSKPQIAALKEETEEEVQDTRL

## COc1ncc(C(F)(F)F)cc1CN[C@H]1[C@H](C(C)(C)C)[C@@H](C(=O)O)N(C(=O)[C@@H]2CCCCO2)[C@H]1c1cccc2c1OCC2 [Example I-298]
[1]
  EC50: 1000 to 10000 nM
[2]
  EC50: 1000 to 10000 nM
  Maximum % activity (with co-corrector): +++ (≥350)
  Emax: 100 to 200%

## COc1ccc(C(F)(F)F)cc1CN[C@H]1[C@H](C(C)(C)C)[C@@H](C(=O)O)N(C(=O)[C@@H]2CCCCO2)[C@H]1c1cccc2c1OCC2 [Example I-299]
[1]
  EC50: 1000 to 10000 nM
[2]
  EC50: 1000 to 10000 nM
  Maximum % activity (with co-corrector): +++ (≥350)
  Emax: 100 to 200%

## COc1cc(C(F)(F)F)ccc1CN[C@H]1[C@H](C(C)(C)C)[C@@H](C(=O)O)N(C(=O)[C@@H]2CCCCO2)[C@H]1c1cccc2c1OCC2 [Example I-300]
[1]
  EC50: 1000 to 10000 nM
[2]
  EC50: 1000 to 10000 nM
  Maximum % activity (with co-corrector): +++ (≥350)
  Emax: > 200%

## COc1ncc(C2CCC2)cc1CN[C@H]1[C@H](C(C)(C)C)[C@@H](C(=O)O)N(C(=O)[C@@H]2CCCCO2)[C@H]1c1cccc2c1OCC2 [Example I-301]
[1]
  EC50: 1000 to 10000 nM
[2]
  EC50: 1000 to 10000 nM
  Maximum % activity (with co-corrector): +++ (≥350)
  Emax: > 200%

## COc1cc2c(cc1CN[C@H]1[C@H](C(C)(C)C)[C@@H](C(=O)O)N(C(=O)[C@@H]3CCCCO3)[C@H]1c1cccc3c1OCC3)CCCC2 [Example I-302]
[1]
  EC50: 1000 to 10000 nM
[2]
  EC50: 1000 to 10000 nM
  Maximum % activity (with co-corrector): +++ (≥350)
  Emax: 100 to 200%

## COc1cccc(S(=O)(=O)N2[C@H](C(=O)O)[C@@H](C(C)(C)C)[C@H](NCc3cc(C4CCC4)cnc3OC)[C@@H]2c2ccccc2C(C)C)n1 [Example I-303]
[1]
  EC50: 1000 to 10000 nM
[2]
  EC50: 1000 to 10000 nM
  Maximum % activity (with co-corrector): +++ (≥350)
  Emax: < 100%

## COc1ccc(C2(C)CCC2)cc1CN[C@H]1[C@H](C(C)(C)C)[C@@H](C(=O)O)N(C(=O)[C@@H]2CCCCO2)[C@H]1c1ccccc1C(C)C [Example I-304]
[1]
  EC50: < 1000 nM
[2]
  EC50: < 1000 nM
  Maximum % activity (with co-corrector): +++ (≥350)
  Emax: > 200%

## CC(C)c1ccccc1[C@H]1[C@@H](NCc2cccc3c2OC(C)(C)C3)[C@H](C(C)(C)C)[C@@H](C(=O)O)N1C(=O)[C@@H]1CCCO1 [Example I-305]
[1]
  EC50: 1000 to 10000 nM
[2]
  EC50: 1000 to 10000 nM
  Maximum % activity (with co-corrector): +++ (≥350)
  Emax: 100 to 200%

## CC(C)c1ccccc1[C@H]1[C@@H](NCc2cccc3c2OC(C)(C)C3)[C@H](C(C)(C)C)[C@@H](C(=O)O)N1C(=O)[C@@H]1CCCCO1 [Example I-306]
[1]
  EC50: < 1000 nM
[2]
  EC50: < 1000 nM
  Maximum % activity (with co-corrector): +++ (≥350)
  Emax: > 200%

## COc1ncc(C2CCC2)cc1CN[C@H]1[C@H](C(C)(C)C)[C@@H](C(=O)O)N(C(=O)C2CCCCC2)[C@H]1c1cccc2c1OC(C)(C)C2 [Example I-307]
[1]
  EC50: < 1000 nM
[2]
  EC50: < 1000 nM
  Maximum % activity (with co-corrector): +++ (≥350)
  Emax: > 200%

## COc1ccc(Cl)c2c1CN([C@H]1[C@H](C(C)(C)C)[C@@H](C(=O)O)N(C(=O)[C@@H]3CCCCO3)[C@H]1c1ccccc1C(C)C)C2 [Example I-308]
[1]
  EC50: 1000 to 10000 nM
[2]
  EC50: < 1000 nM
  Maximum % activity (with co-corrector): +++ (≥350)
  Emax: < 100%

## COc1ccc(C(F)(F)F)cc1OCCN[C@H]1[C@H](C(C)(C)C)[C@@H](C(=O)O)N(C(=O)OC(C)C)[C@H]1c1cccnc1OC(C)C [Example I-309]
[1]
  EC50: 1000 to 10000 nM
[2]
  EC50: 1000 to 10000 nM
  Maximum % activity (with co-corrector): +++ (≥350)
  Emax: 100 to 200%
